≈ marks a conversion by molar mass, not a printed value. Where “and” joins values, the source holds several entries; their conditions need not be identical. Identical values can stand only once. Like-named read-outs stand apart in the source and are kept apart here.
Legend:
[1] = system: M. avium clinical isolate Koav 19 (WT); assay: microbe, parasite or virus in culture; assay type: cell-based; conditions: Mycobacterium avium
[2] = system: M. avium clinical isolate Koav 15 (WT); assay: microbe, parasite or virus in culture; assay type: cell-based; conditions: Mycobacterium avium
[3] = system: M. avium clinical isolate Koav 1 (WT); assay: microbe, parasite or virus in culture; assay type: cell-based; conditions: Koav 1 (K 1), WT; for MIC: Mycobacterium avium
[4] = system: M. avium clinical isolate Koav 1 (WT); assay: microbe, parasite or virus in culture; assay type: cell-based; conditions: Mycobacterium avium
[5] = system: M. avium clinical isolate Koav 13 (GyrA Asp95Gly); assay type: cell-based, M. avium subsp. hominissuis
[6] = system: M. avium clinical isolate Cl-A-2 (GyrA Asp95Tyr); assay type: cell-based, M. avium subsp. hominissuis
[7] = system: M. avium clinical isolate Koav 25 (WT); assay: microbe, parasite or virus in culture; assay type: cell-based; conditions: Koav 25 (K 25), WT; for MIC: Mycobacterium avium
[8] = system: M. avium clinical isolates; assay type: cell-based, M. avium subsp. hominissuis; conditions: for range of mean FICIms: over isolates, WQ-3810 and MXF together
[9] = system: M. avium clinical isolates; assay type: cell-based, M. avium subsp. hominissuis
[10] = system: M. avium clinical isolate Koav 25 (WT); assay: microbe, parasite or virus in culture; assay type: cell-based; conditions: Mycobacterium avium
[11] = system: M. avium clinical isolate Koav 15 (WT); assay: microbe, parasite or virus in culture; assay type: cell-based; conditions: Koav 15 (K 15), WT
[12] = system: M. avium clinical isolate Koav 3 (GyrA Asp95Gly); assay type: cell-based, M. avium subsp. hominissuis
[13] = system: M. avium clinical isolate Koav 3 (GyrA Asp95Gly); assay type: cell-based, M. avium subsp. hominissuis; remark: listed apart in the source
[14] = system: M. avium clinical isolate Cl-A-2 (GyrA Asp95Tyr); assay type: cell-based, M. avium subsp. hominissuis; remark: listed apart in the source
[15] = system: M. avium clinical isolate Koav 20 (WT); assay: microbe, parasite or virus in culture; assay type: cell-based; conditions: Mycobacterium avium
[16] = system: M. avium clinical isolate Koav 20 (WT); assay: microbe, parasite or virus in culture; assay type: cell-based; conditions: Koav 20 (K 20), WT; for MIC: Mycobacterium avium
[17] = system: M. avium clinical isolate Koav 21 (WT); assay: microbe, parasite or virus in culture; assay type: cell-based; conditions: Mycobacterium avium
[18] = system: M. avium clinical isolate Koav 19 (WT); assay: microbe, parasite or virus in culture; assay type: cell-based; conditions: Koav 19 (K 19), WT
[19] = system: M. avium clinical isolate Koav 11 (GyrA Asp95Tyr); assay type: cell-based, M. avium subsp. hominissuis
[20] = system: M. avium clinical isolate Koav 21 (WT); assay: microbe, parasite or virus in culture; assay type: cell-based; conditions: Koav 21 (K 21), WT; for MIC: Mycobacterium avium
[21] = system: M. avium clinical isolate Koav 2 (WT); assay: microbe, parasite or virus in culture; assay type: cell-based; conditions: Koav 2 (K 2), WT; for MIC: Mycobacterium avium
[22] = system: M. avium clinical isolate Koav 2 (WT); assay: microbe, parasite or virus in culture; assay type: cell-based; conditions: Mycobacterium avium, drug alone, day 14
[23] = system: M. avium clinical isolate Koav 13 (GyrA Asp95Gly); assay type: cell-based, M. avium subsp. hominissuis; remark: listed apart in the source
[24] = drug alone, day 14, read-out: MIC
[25] = checkerboard, single replicates
[26] = checkerboard (with 1 µg/ml INH), read-out: MIC of FQ with INH
[27] = checkerboard, single replicates, read-out: MIC of drug alone
[28] = checkerboard (S2: with 1 µg/ml EMB), read-out: MIC of FQ with EMB
[29] = FQ-resistant isolates, MIC assay
[30] = Mycobacterium avium, checkerboard, single replicates, read-out: MIC of drug alone
[31] = checkerboard (with 1 µg/ml INH)

Work on `Cc1c(N2CC(N(C)C)C2)c(F)cc2c(=O)c(C(=O)O)cn(-c3nc(N)c(F)cc3F)c12` [WQ-3810] yielded an MIC [1, 24] of 0.5 µg/mL (≈ 1.12 µM), an MIC ([1]; read-out: MIC with 1 µg/mL EMB) of 0.25 µg/mL (≈ 0.559 µM) and an MIC ([1]; read-out: MIC with 1 µg/mL INH) of 0.13 µg/mL (≈ 0.291 µM). For the same compound, the MIC [2, 24] was 1 µg/mL (≈ 2.24 µM), the MIC ([2]; read-out: MIC with 1 µg/mL EMB) was 1 µg/mL (≈ 2.24 µM) and the MIC ([2]; read-out: MIC with 1 µg/mL INH) was 1 µg/mL (≈ 2.24 µM). For the same compound, the “mean FICIm” value ([3]; FQ with EMB) was 0.62, the “mean FICIm” value ([3]; FQ with INH) was 0.45 and the FICIm ([3]; FQ+EMB, single replicates) was 0.625 and 0.5 and 0.75. The FICIm ([3]; FQ+INH, single replicates) was 0.5 and 0.375, the “MIC of drug alone” value [3, 25] was 0.25 µg/mL and the MIC [3, 26] was 0.0312 µg/mL. The MIC [3, 27] was 0.125 µg/mL, the MIC [4, 24] was 0.125 µg/mL (≈ 0.279 µM) and the MIC ([4]; read-out: MIC with 1 µg/mL EMB) was 0.01 µg/mL (≈ 0.0224 µM). For the same compound, the MIC ([4]; read-out: MIC with 1 µg/mL INH) was 0.03 µg/mL (≈ 0.0671 µM), the MIC [5] was 8 µg/mL (≈ 17.9 µM) and the “MIC with 1 µg/mL EMB” value [5] was 4 (×0.5) µg/mL. The “MIC with 1 µg/mL INH” value [5] was 4 (×0.5) µg/mL, the MIC [6] was 4 µg/mL (≈ 8.94 µM) and the “MIC with 1 µg/mL EMB” value [6] was 1 (×0.25) µg/mL. The “MIC with 1 µg/mL INH” value [6] was 1(×0.25) µg/mL, the “mean FICIm” value ([7]; FQ with EMB) was 0.75 and the “mean FICIm” value ([7]; FQ with INH) was 0.39. The FICIm ([7]; FQ+EMB, single replicates) was 0.75, the FICIm ([7]; FQ+INH, single replicates) was 0.5 and 0.375 and 0.3125 and the “FIC of FQ” value ([7]; pair with EMB) was 0.25 µg/mL. For the same compound, the MIC [7, 28] was 0.25 µg/mL, the MIC [7, 27] was 1 µg/mL and the interaction ([8]; in combination with EMB, mean FICIm between 0.5 and 1 additive) was “additive”. The interaction ([8]; in combination with INH, FICIm ≤ 0.5 regarded as synergistic) was “synergistic”, the “range of mean FICIms” value ([8]; with EMB) was 0.41 to 0.91 and the “range of mean FICIms” value ([8]; with INH) was 0.19 to 0.71. The MIC range [9] was 4 to 8 µg/mL, the “higher antimicrobial activity than CIP” value [9, 29] was 4 to 8 fold and the “higher antimicrobial activity than LVX” value [9, 29] was 2 to 16 fold. For the same compound, the “higher antimicrobial activity than MXF” value [9, 29] was 2 to 4 fold, the MIC range ([9]; WT isolates) was 0.125 to 1 µg/mL and the MIC [10, 24] was 1 µg/mL (≈ 2.24 µM). For the same compound, the MIC ([10]; read-out: MIC with 1 µg/mL EMB) was 0.5 µg/mL (≈ 1.12 µM), the MIC ([10]; read-out: MIC with 1 µg/mL INH) was 0.5 µg/mL (≈ 1.12 µM) and the “mean FICIm” value ([11]; FQ with EMB) was 0.71. The “mean FICIm” value ([11]; FQ with INH) was 0.33, the FICIm ([11]; FQ+EMB, single replicates) was 0.75 and 0.625 and the FICIm ([11]; FQ+INH, single replicates) was 0.25 and 0.5 and 0.2812. The MIC [11, 30] was 1 µg/mL, the FICIm [12] was 0.75 and the “MIC of FQ with EMB” value [12] was 1 µg/mL and 2 µg/mL. The “MIC of FQ with INH” value [12] was 1 µg/mL and 2 µg/mL, the “MIC of drug alone” value [12] was 4 µg/mL and the “mean FICIm” value [12] was 0.71 and 0.75. For the same compound, the MIC [13] was 4 µg/mL (≈ 8.94 µM), the “MIC with 1 µg/mL EMB” value [13] was 4 (×1) µg/mL and the “MIC with 1 µg/mL INH” value [13] was 2 (×0.5) µg/mL. For the same compound, the “MIC of FQ with EMB” value [14] was 1 µg/mL and 0.5 µg/mL, the “MIC of FQ with INH” value [14] was 0.5 µg/mL and 0.25 µg/mL and the “mean FICIm” value [14] was 0.53 and 0.66. It also gave an MIC [15, 24] of 0.125 µg/mL (≈ 0.279 µM), an MIC ([15]; read-out: MIC with 1 µg/mL EMB) of 0.13 µg/mL (≈ 0.291 µM) and an MIC ([15]; read-out: MIC with 1 µg/mL INH) of 0.13 µg/mL (≈ 0.291 µM). The “mean FICIm” value ([16]; FQ with EMB) was 0.66, the “mean FICIm” value ([16]; FQ with INH) was 0.25 and the FICIm ([16]; FQ+EMB, single replicates) was 0.625 and 0.75. For the same compound, the FICIm ([16]; FQ+INH, single replicates) was 0.25, the “MIC of FQ with INH” value [16, 31] was 0.0625 µg/mL and the “MIC of drug alone” value [16, 25] was 0.5 µg/mL. It also gave an MIC [16, 26] of 0.0312 µg/mL, an MIC [16, 27] of 0.25 µg/mL and an MIC [17, 24] of 1 µg/mL (≈ 2.24 µM). The MIC ([17]; read-out: MIC with 1 µg/mL EMB) was 1 µg/mL (≈ 2.24 µM), the MIC ([17]; read-out: MIC with 1 µg/mL INH) was 1 µg/mL (≈ 2.24 µM) and the “mean FICIm” value ([18]; FQ with EMB) was 0.85. The “mean FICIm” value ([18]; FQ with INH) was 0.45 and 0.46, the FICIm ([18]; FQ+EMB, single replicates) was 1 and 0.625 and the FICIm ([18]; FQ+INH, single replicates) was 0.5312 and 0.5 and 0.375. For the same compound, the “MIC of drug alone” value [18, 25] was 0.5 µg/mL, the MIC [18, 30] was 0.25 µg/mL and the MIC [19] was 4 µg/mL (≈ 8.94 µM). For the same compound, the “MIC with 1 µg/mL EMB” value [19] was 4 (×1) µg/mL, the “MIC with 1 µg/mL INH” value [19] was 4 (×1) µg/mL and the “mean FICIm” value ([20]; FQ with EMB) was 0.75. The “mean FICIm” value ([20]; FQ with INH) was 0.41, the FICIm ([20]; FQ+EMB, single replicates) was 0.75 and the FICIm ([20]; FQ+INH, single replicates) was 0.375 and 0.5312. The “MIC of FQ with INH” value [20, 31] was 1 µg/mL, the MIC [20, 28] was 0.5 µg/mL and the MIC [20, 26] was 0.5 µg/mL. For the same compound, the MIC [20, 27] was 2 µg/mL, the “mean FICIm” value ([21]; FQ with EMB) was 0.91 and the “mean FICIm” value ([21]; FQ with INH) was 0.25. The FICIm ([21]; FQ+EMB, single replicates) was 0.75 and 1, the FICIm ([21]; FQ+INH, single replicates) was 0.25 and the “MIC of FQ with EMB” value ([21]; checkerboard (S2: with 1 µg/ml EMB)) was 0.25 µg/mL. For the same compound, the MIC [21, 28] was 0.125 µg/mL, the MIC [21, 26] was 0.0625 µg/mL and the MIC [21, 27] was 0.5 µg/mL. For the same compound, the MIC [22] was 0.5 µg/mL (≈ 1.12 µM), the “MIC of FQ with EMB” value [23] was 4 µg/mL and 2 µg/mL and the “MIC of drug alone” value [23] was 8 µg/mL and 4 µg/mL.
